# Columns and labels:
# [1] = system: A549 cells; experiment: MTT assay on lung cancer cells; type: cell-based; settings: A549, 48 h, 0.086-1.38 μmol/L
# Experimental: A549 cells (1×10^4 cells/well, CAT: CRL-1658, ATCC) were seeded in a 96-well plate and incubated with DMEM medium supplementing 10% FBS (fetal bovine serum). At this time, the culture was maintained under the condition of 5% of CO2 at 37° C. The cells were cultured for 24 h and mwCNT-COOH, EPI, EPI-EGF, EPI-mwCNT and EPI-EGF-mwCNT were treated to each well with ratios of 0.086, 0.172, 0.345, 0.69, 1.38 μmol/L, respectively and then further cultured for 48 h. And then, drug solutions were removed from the plate, 100 μl of MTT reagent (1 mg/ml, 3-(4,5-dimethylthiazol-2-yl)-2,5-diphenyltetrazolium bromide) was slowly added to each well, and incubated for 1 h at 37° C. Thereafter, 100 μl of DMSO solution per well was added, followed by measuring absorbance at 560 nm using a microplate reader (Model 680, Bio-Rad).
# Then, the present inventors treated drugs containing doxorubicin (DOX-EGF, DOX-mwCNT-25, DOX-EGF-mwCNT) to the same lung cancer cell A549. All the condition except drugs were same.
# [2] = system: MDA-MB-231 tumor; experiment: Tumor size and weight in MDA-MB-231 tumor model mice after tail vein injection; type: in vivo, BALB/c nude mice
# Experimental: To prepare the animal tumor model, MDA-MB-231 cells were inoculated subcutaneously in the flank of female BALB/c nu/nu (athymic nude) mice (5×10^6 cells per mouse) When the tumor reached a mean volume of 100 mm^3 in the mice were used for the following Experimental Examples.
# First, the tumor model mice prepared by transplanting MDA-MB-231 tumor cells to BALB/c nude mice were randomly divided into seven groups (n=10 per group) and injected with 200 μL of 0.5 mg/kg DOX, mwCNT, DOX-mwCNT in PBS, or pure PBS (negative control) in the tail vein. Subjects were weighed at 2, 9, and 16 days. Body weight and tumor sizes were measured twice a week for 21 days, and tumor volumes were calculated by the formula: V(volume)=X(length)×D(width)^2/2.
# Twenty one day after the tail vein injection, the changes in tumor size of sacrificed animals were determined.
# Furthermore, after the administration of the anticancer agent, tumor tissues taken from the sacrificed animals were weighed. In this case, in order to compare the significance of each group, Prism (GraphPad Software, Inc.) was used for statistical analysis with one-way ANOVA (analysis of variance) (** P<0.01, *** P<0.001).
# [3] = system: MDA-MB-231 tumor tissue; experiment: Histopathological observation (Haematoxylin-Eosin) of tumor tissues; type: in vivo, BALB/c nude mice; settings: H&E; doxorubicin 0.5 and 5 mg/kg, DOX-mwCNT-25 0.5 mg/kg; versus control
# Experimental: Then, the present inventors anesthetized the mice with ethyl ether, sacrificed them and collected tumor tissues therefrom. After measuring the weight of the collected tumor tissues, the tumor tissues were fixed for 24 hours in 10% formalin, washed with water and dehydrated and dipped in 70, 80, 90, 95 and 100% of ethanol, serially. The tissues were transparentized with xylene and embedded in paraffin. And then the embedded tissues were sliced at a thickness of 5 um, placed on glass slides.
# [4] = system: MDA-MB-231 cells; experiment: Efflux from cells (fluorescence microscopy); type: cell-based; settings: 100 ng/ml for 2 h, then drug-free medium
# Experimental: In addition, for efflux analysis, MDA-MB-231 cells (1×10^4 cells/well) cultivated in 24 well plate were treated with 100 ng/ml of DOX-mwCNT according to an embodiment of the present invention and doxorubicin, respectively. Two hours after the treatment, culture media was removed and the cells were washed three times with PBS and incubated with regular culture medium containing no anticancer agents for 24 h. Then the degree of efflux of doxorubicin from the cells was observed using a fluorescent microscope (FIG. 27). […] In the experiment, zero time (0 h) means a time when 2 hours has elapsed after removing doxorubicin and washing cells with PBS.
# [5] = system: late endosomes in MDA-MB-231 cells; experiment: High resolution imaging of doxorubicin and late endosome marker; type: cell-based; settings: 24 h
# Experimental: Furthermore, the present inventors performed a high resolution image analysis for 24 h in order to investigate the degradation of uptaken doxorubicin signal by co-staining doxorubicin and late endosome specific marker. […] Therefore, it was understood that late endosomes act as transporters of doxorubicin excreted from nucleus.
# [6] = system: Mrp-1; experiment: Mrp-1 mRNA expression by RT-PCR; type: cell-based; settings: 100 ng/ml for 2 h; after 6 hours and later
# Experimental: (§1) MDA-MB-231 breast cancer cells (4×10^5 cells/well) known to overexpress MRP1 were plated in a 6 well plate and 100 ng/ml of doxorubicin and DOX-mwCNT were treated to the cells for 2 h, respectively. Carbon nanotube as a control was treated with a concentration of 348 ng/ml for 2 h.
# Two hours after treatment, culture mediums were replaced with DMEM medium supplemented with 10% FBS and not containing mwCNT, DOX, and DOX-mwCNT, and the cells were further incubated. Then RNA was isolated from cells after 2, 6, 12, 24, and 36 hours of incubation, respectively and then Mrp-1 mRNA level was analyzed. In this case, TRIZOL reagent (Invitrogen, USA) and chloroform were used for RNA isolation, then the isolated RNA was reacted with same volume of isopropanol for 2 h, quantified and subjected to RT-PCR (reverse transcriptase PCR).
# [7] = system: MRP-1 protein; experiment: MRP-1 protein western blot; type: cell-based; settings: 100 ng/ml for 2 h; 24 hours after the treatment
# Experimental: as §1
# To confirm the above result in protein level, the present inventors performed western bot analysis of the MRP-1 protein, there was a significant difference in protein expression of MRP-1 between doxorubicin- and DOX-mwCNT-25-treating groups (FIG. 30). […] Despite of previous studies reporting that Mdr-1 and Mrp-1 genes mediate drug resistance of MDA-MB-231, Mdr-1 was hardly detected in this experiment due to short drug exposure time (2 hours).
# [8] = Particle size by transmission electron microscope; settings: in PBS
compound,measurement,setting,value
"COc1cccc2c1C(=O)c1c(O)c3c(c(O)c1C2=O)C[C@@](O)(C(=O)CO)C[C@@H]3O[C@H]1C[C@H](N)[C@@H](O)[C@H](C)O1 [EPI, epirubicin]",viability compared to group treated with only mwCNT-COOH,[1],lower viability
"EPI-EGF (NSDSECPLSHDGYCLHDGVCMYIEALDKYACNCVVGYIGERCQYRDLKWWELR; Epidermal growth factor epirubicin conjugate; UniProt P01133 971-1023, looked up)",viability compared to group treated with only mwCNT-COOH,[1],lower viability
"COc1cccc2c1C(=O)c1c(O)c3c(c(O)c1C2=O)C[C@@](O)(C(=O)CO)C[C@@H]3O[C@H]1C[C@H](N)[C@H](O)[C@H](C)O1 [DOX, doxorubicin]",volume and mass of tumors,"[2]; 0.5 mg/kg, three times I.V. injection, 21 days",no notable tumor inhibition
same,size of tumor tissue compared to control group,[2]; large dose 5 mg/kg,decreased significantly
same,necrosis / damage of tumor tissue,[3],increased necrosis
same,time to complete excretion from cells,[4],6˜12 hours
same,late endosome signal,[5],few late endosomes were observed
same,expression of Mrp-1 gene,[6],decreased
same,protein expression of MRP-1,[7],weak band
same,particle size (length variation),[8],0-40 nm

# From patent publication US9981042B2, “Carbon nanotube-based anti-cancer agent capable of suppressing drug resistance” (INDUSTRY-ACADEMIC COOPERATION FOUNDATION GYEONGSANG …, priority 2012, dated 2018)
